pKd: −log10 of the molar value. Non-standard residues stand in square brackets, D forms with d. Residues, ends and D or L forms follow the SMILES beside them.
What was measured:
[1] = test system: Vero hACE2 cells
[2] = test system: Vero A2T2 cell line
[3] = test system: HEK293T cells
[4] = biological target: SARS-CoV-1 spike heptad repeat 1 peptide, biotinylated (SARS-CoV-1); assay: BLI
[5] = test system: SARS-CoV-2 (nCoV/USA_WA1/2020)
[6] = biological target: SARS-CoV-2 HR1 (Severe acute respiratory syndrome coronavirus 2, UniProt P0DTC2); assay: biochemical; assay type: binding
[7] = biological target: SARS-CoV-1 HR1 (Severe acute respiratory syndrome coronavirus, UniProt P59594); assay: biochemical; assay type: binding
[8] = test system: SARS-CoV-2; settings: 1 h
[9] = test system: human red blood cells

Question: Which “Vero TD50 48 h” value [1] does the source give for `CC[C@H](C)[C@H](NC(=O)[C@@H](NC(=O)[C@@H](N)CO)[C@@H](C)CC)C(=O)N[C@@H](CC(N)=O)C(=O)N[C@@H](Cc1ccccc1)C(=O)N[C@@H](CCC(=O)O)C(=O)N[C@@H](CCCCN)C(=O)N[C@@H](CC(C)C)C(=O)O` [OVA, reference compound] here?
Answer: > 50 µM

Question: And the “Vero TD50 24 h” value [2]?
Answer: > 400 µM

Question: And the “HEK293T TD50” value [3]?
Answer: > 50 µM

Question: With “SARS-CoV-2 spike heptad repeat 2 peptide” as the compound, how does the pKd [4] read?
Answer: 4.23

Question: What does the source list for `CC[C@@H](C)[C@@H](NC(=O)[C@H]1CCCN1C(=O)[C@H]1CCCN1C(=O)[C@H](NC(=O)[C@@H](Cc1c[nH]c2ccccc12)NC(=O)[C@@H](CCCCN)NC(=O)[C@@H](CC(C)C)NC(=O)[C@H](NC(=O)[C@@H](CCCCN)NC(=O)CNC(=O)[C@H](NC(=O)[C@@H](CCCCN)NC(=O)[C@@H](CCCCN)NC(=O)[C@@H](CC(C)C)NC(=O)[C@@H](CCCNC(=N)N)NC(=O)[C@@H](CCCCN)NC(=O)[C@@H](CCCNC(=N)N)NC(=O)[C@H](NC(=O)[C@@H](CCCCN)NC(=O)[C@@H](CCCCN)NC(=O)[C@@H](CCCNC(=N)N)NC(=O)[C@@H](CC(C)C)NC(=O)[C@@H](CCCNC(=N)N)NC(=O)[C@@H](CCCNC(=N)N)NC(=O)[C@@H](Cc1ccccc1)NC(=O)[C@@H](CCCNC(=N)N)NC(=O)CNC(=O)[C@H](N)C(C)C)[C@H](C)O)[C@H](C)CC)C(C)C)[C@H](C)CC)C(=O)N[C@@H](C(=O)NCC(=O)N[C@H](CO)C(=O)N[C@@H](C(=O)N1CCC[C@@H]1C(=O)N[C@H](CC(C)C)C(=O)NCC(=O)N[C@H](CO)C(=O)NCC(=O)O)[C@H](C)CC)C(C)C` [D-Yongshi] (H-[dV]G[dR][dF][dR][dR][dL][dR][dK][dK][dT][dR][dK][dR][dL][dK][dK][dI]G[dK][dV][dL][dK][dW][dI][dP][dP][dI][dV]G[dS][dI][dP][dL]G[dS]G-OH; N-terminus and C-terminus assumed)?
Answer: cytotoxicity compared with parent or control peptide (in words) [1]: greatly increased cytotoxicity; SARS-CoV-2 inhibition by D-enantiomer (in words) [5]: only observed at concentrations that also induced substantial cell death; pKd [6]: < 4.00; pKd [7]: < 4.00

Question: With `CC[C@H](C)[C@H](NC(=O)[C@H](CCCCN)NC(=O)[C@H](CCC(=O)O)NC(=O)[C@H](CCCCN)NC(=O)[C@H](CO)NC(=O)[C@H](CCCCN)NC(=O)[C@H](CCCNC(=N)N)NC(=O)[C@H](Cc1ccccc1)NC(=O)[C@H](Cc1ccccc1)NC(=O)[C@H](CC(=O)O)NC(=O)CNC(=O)[C@H](CC(C)C)NC(=O)[C@@H](N)CC(C)C)C(=O)NCC(=O)N[C@@H](CCCCN)C(=O)N[C@@H](CCC(=O)O)C(=O)N[C@@H](Cc1ccccc1)C(=O)N[C@@H](CCCCN)C(=O)N[C@@H](CCCNC(=N)N)C(=O)N[C@H](C(=O)N[C@H](C(=O)N[C@@H](CCC(N)=O)C(=O)N[C@@H](CCCNC(=N)N)C(=O)N[C@H](C(=O)N[C@@H](CCCCN)C(=O)N[C@@H](CC(=O)O)C(=O)N[C@@H](Cc1ccccc1)C(=O)N[C@@H](CC(C)C)C(=O)N[C@@H](CCCNC(=N)N)C(=O)N[C@@H](CC(N)=O)C(=O)N[C@@H](CC(C)C)C(=O)N[C@H](C(=O)N1CCC[C@H]1C(=O)N[C@@H](CCCNC(=N)N)C(=O)N[C@H](C(=O)N[C@@H](CCC(=O)O)C(=O)N[C@@H](CO)C(=O)O)[C@@H](C)O)C(C)C)[C@@H](C)CC)C(C)C)[C@@H](C)CC` [LL-37, reference compound] as the compound, how does the “SARS-CoV-2 inhibition at 50 µM” value [8] read?
Answer: > 50%

Question: And the “Vero TD50 48 h” value [1]?
Answer: 39.44 µM

Question: And the “hemolytic activity (in words)” value [9]?
Answer: considerable hemolytic activity

Question: And the “HEK293T TD50” value [3]?
Answer: 26.61 µM
